Laboratory results taken from the supplement of paper PMC7600603.

Experiments:
[1] = tested on: DLD1 NRF2-GOF; settings: 72 h; CellTiter-Glo viability
In short: (§1)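 Isogenic DLD1 colorectal cancer cells, either NRF2 wild-type or CRISPR gain-of-function, were grown in DMEM with 10% FBS. They were exposed in 384-well plates to library compounds at 5 concentrations spanning a 10,000-fold range. After 72 h, viability was read by CellTiter-Glo on a Pherastar FS reader and normalised to vehicle wells and 100-μM positive-control wells. EC50 and drug sensitivity score (a normalised area under the curve) came from four-parameter logistic dose-response fits.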

[2] = tested on: DLD1 NRF2-WT; settings: 72 h; CellTiter-Glo viability
In short: as §1

[3] = tested on: DLD1 NRF2-GOF; experiment: TC50 cytotoxicity; higher = less toxic; settings: 72 h; CellTox Green cytotoxicity
In short: (§2)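 Isogenic DLD1 colorectal cancer cells differing in NRF2 status, one line edited by CRISPR, were cultured in DMEM with 10% FBS and treated in 384-well plates with library compounds at 5 concentrations spanning a 10,000-fold range. Plates were read after 72 h with CellTox Green on a Pherastar FS reader, and signals were normalised to vehicle wells and 100-μM positive-control wells. Cytotoxicity was summarised as TC50 and as a drug sensitivity score, a normalised area under the curve, both from logistic dose-response fits.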

[4] = tested on: DLD1 NRF2-WT; experiment: TC50 cytotoxicity; higher = less toxic; settings: 72 h; CellTox Green cytotoxicity
In short: as §2

[5] = tested on: DLD1 NRF2-GOF; experiment: drug sensitivity score (DSS) cytotoxicity (DSS score); higher = more toxic; extreme values may be limits of the assay; settings: 72 h; CellTox Green cytotoxicity
In short: as §2

[6] = tested on: DLD1 NRF2-WT; experiment: as above; settings: 72 h; CellTox Green cytotoxicity
In short: as §2

[7] = tested on: DLD1 NRF2-GOF; experiment: drug sensitivity score (DSS) viability (DSS score); higher = more sensitive; extreme values may be limits of the assay; settings: 72 h; CellTiter-Glo viability
In short: as §1

[8] = tested on: DLD1 NRF2-WT; experiment: as above; settings: 72 h; CellTiter-Glo viability
In short: as §1

| EC50 viability [1] [µM] | EC50 viability [2] [µM] | SMILES | TC50 cytotoxicity [3] [µM] | TC50 cytotoxicity [4] [µM] | drug sensitivity score [5] | drug sensitivity score [6] | drug sensitivity score [7] | drug sensitivity score [8] |
| --- | --- | --- | --- | --- | --- | --- | --- | --- |
| 0.093 | 0.0385 | COc1cc(Nc2ncc(F)c(Nc3ccc4c(n3)N(COP(=O)(O)O)C(=O)C(C)(C)O4)n2)cc(OC)c1OC [Fostamatinib] | > 2.5 | > 2.5 | 0.2 | 0 | 7.4 | 6.2 |
| 0.0253 | 0.0071 | COc1ncc(-c2ccc3nccc(-c4ccnnc4)c3c2)cc1NS(=O)(=O)c1ccc(F)cc1F [Omipalisib] | > 1 | > 1 | 0 | 0 | 12.6 | 18.7 |
| > 10 | 0.796 | CNC(=O)c1cccc2cc(Oc3ccnc4cc(OCC5(N)CC5)c(OC)cc34)ccc12 [Lucitanib] | > 10 | > 10 | 0 | 0 | 1.3 | 2.7 |
| 0.114 | 0.103 | CN1CCN(C(=O)c2ccc3cc(CCNc4ncnc5ccc(C#N)cc45)ccc3c2)CC1 [Senexin B] | > 1 | > 1 | 0 | 0 | 3.6 | 3.5 |
| > 2.5 | > 2.5 | COc1cc2nccc(Oc3ccc(NC(=O)NC4CC4)c(Cl)c3)c2cc1C(N)=O [Lenvatinib] | > 2.5 | > 2.5 | 0 | 0 | 0 | 0.1 |
| 1.89 | 1.41 | Cc1cnc(Nc2ccc(OCCN3CCCC3)cc2)nc1Nc1cccc(S(=O)(=O)NC(C)(C)C)c1 [Fedratinib] | 2.5 | 2.4 | 4.3 | 3.8 | 8.2 | 9.6 |
| 0.27 | 0.543 | COCCOc1cnc2ccn([C@H](C)c3nnc4c(F)cc(-c5cnn(C)c5)cn34)c(=O)c2c1 [AMG-337] | > 10 | > 10 | 0 | 0 | 6.6 | 4.2 |
| > 2.5 | 0.993 | CC(C)(C)c1nc(-c2cccc(NS(=O)(=O)c3c(F)cccc3F)c2F)c(-c2ccnc(N)n2)s1 [Dabrafenib] | > 2.5 | > 2.5 | 0 | 0 | 0.6 | 1.4 |
| 0.908 | 0.0381 | O=C(O)c1ccc(-c2c[nH]c3ncc(-c4ccccc4)cc23)cc1C1CCCC1 | 3.47 | > 10 | 2 | 0.4 | 6.6 | 12.1 |

The remaining lines, values behind:

| SMILES | EC50 viability [1] [µM] | EC50 viability [2] [µM] | TC50 cytotoxicity [3] [µM] | TC50 cytotoxicity [4] [µM] | drug sensitivity score [5] | drug sensitivity score [6] | drug sensitivity score [7] | drug sensitivity score [8] |
| --- | --- | --- | --- | --- | --- | --- | --- | --- |
| CC(=O)N(O)CCCCCNC(=O)CCC(=O)N(O)CCCCCNC(=O)CCC(=O)N(O)CCCCCN [Deferoxamine] | 2.01 | 3.25 | > 10 | > 10 | 0 | 0 | 7 | 4.8 |
| CN1CCN(CCOc2cc(OC3CCOCC3)c3c(Nc4c(Cl)ccc5c4OCO5)ncnc3c2)CC1 [Saracatinib] | > 10 | 2.48 | > 10 | > 10 | 0.1 | 0.7 | 0.3 | 2.4 |
| O=c1[nH]c(=O)n([C@H]2C[C@H](O)[C@@H](CO)O2)cc1F [Floxuridine] | 0.259 | 0.255 | > 10 | > 10 | 0 | 0 | 11.8 | 12.2 |
| CCCCOc1nc(N)c2c(n1)N(Cc1cccc(CN3CCCC3)c1)CC(=O)N2 [Vesatolimod] | > 10 | > 10 | > 10 | > 10 | 0 | 0 | 0.1 | 0 |
| N#CC(c1ccnc(OCc2ccc(CN3CCOCC3)cc2)n1)c1nc2ccccc2s1 (stereo not drawn) [Bentamapimod] | > 10 | > 10 | > 10 | > 10 | 0 | 0 | 0 | 0 |
| COc1cc2c(cc1OCCCN1CCCC1)N=C(N)C21CCC1 [A-366] | > 25 | > 25 | > 25 | > 25 | 0 | 0 | 0 | 0 |
| O=C(Nc1c[nH]nc1-c1nc2ccc(CN3CCOCC3)cc2[nH]1)NC1CC1 [AT9283] | 0.0219 | 0.0555 | 0.0267 | > 1 | 9.8 | 2.6 | 15.1 | 8.6 |
| CCNC(=O)c1noc(-c2cc(C(C)C)c(O)cc2O)c1-c1ccc(CN2CCOCC2)cc1 [Luminespib] | 0.0128 | 0.0121 | > 1 | > 1 | 0 | 0 | 21.4 | 22 |
| CC[C@@H]1C(=O)OC[C@@H]1Cc1cncn1C [Pilocarpine] | > 40 | > 40 | > 40 | > 40 | 0 | 0 | 0.1 | 0 |
| O=C(/C=C/c1cccc(S(=O)(=O)Nc2ccccc2)c1)NO [Belinostat] | 1.26 | 1.1 | > 10 | 1.53 | 0 | 2.6 | 7.1 | 9.9 |
| Nc1ncnc2c1nc(Cl)n2[C@@H]1O[C@H](CO)[C@@H](O)[C@H]1O [8-chloro-adenosine] | 1.31 | 1.15 | > 50 | > 50 | 0.2 | 0 | 15.2 | 16.6 |
| CC[C@@]1(O)C(=O)OCc2c1cc1n(c2=O)Cc2cc3c(CN(C)C)c(O)ccc3nc2-1 [Topotecan] | 1.09 | 1.5 | 3.39 | 2.2 | 1.9 | 3.1 | 9.2 | 8.1 |
